Measurements taken from paper PMC4197335, “Cancer-Selective Targeting of the NF-κB Survival Pathway with GADD45β/MKK7 Inhibitors” (Cancer Cell, 2014).
Where two headings read alike, the source gives them in different places.

Columns and labels:
[1] = microsomal stability; assay type: in vitro ADME, human
Text: (§1) Pharmacophore Model Building
(§2) The pharmacophore predictive
(§3) Broad- Panel Kinase Profiling
(§4) according to in-house protocols therein.
(§5) Pharmacokinetic Anal yses
(§6) In vitro pharmacok inetic assays were […]

[2] = plasma protein binding; assay type: in vitro ADME; details: read-out: PPB (fraction unbound)
Text: as §1, §2, §3, §4, §5, §6

[3] = system: CD138+ cells from MM patients; assay: cells; details: read-out: IC50 (MM; PCs (n = 8)); at 48 hr; mean ± SEM
Text: (§7) Additional details are provided in Supplemental Experimental Procedures.
(§8) automated system (Becton Dick inson) and analyzed with FlowJo.

[4] = system: human mesenchymal stem cells (MSCs); assay: cells; details: read-out: IC50 (normal; MCSs); at 48 hr
Text: as §7, §8

[5] = system: mouse lymph node (LN) cells; assay: cells; details: read-out: IC50 (normal; lymph node cells); at 48 hr
Text: as §7, §8

[6] = system: CD138+ cells from WM patients; assay: cells; details: read-out: IC50 (WM; PCs (n= 2)); at 48 hr; mean ± SEM
Text: as §7, §8

[7] = system: human BMSCs; assay: cells; details: read-out: IC50 (normal; BMSCs); at 48 hr
Text: as §7, §8

[8] = system: human PBMCs; assay: cells; details: read-out: IC50 (normal; PBMCs); at 48 hr
Text: as §7, §8

[9] = system: mouse splenocytes; assay: cells; details: read-out: IC50 (normal; splenocytes); at 48 hr
Text: as §7, §8

[10] = molecular target: T1, GST-hMKK7 (Homo sapiens, UniProt O14733); assay: tryptophan fluorescence quenching analysis; assay type: binding; details: DTP3/MKK7 interaction
T1 construct: Full-length human (h)MKK7 was expressed as a protein fused to an N-terminal GST tag (GST-MKK7); made in house
T1 sequence (O14733 1-419): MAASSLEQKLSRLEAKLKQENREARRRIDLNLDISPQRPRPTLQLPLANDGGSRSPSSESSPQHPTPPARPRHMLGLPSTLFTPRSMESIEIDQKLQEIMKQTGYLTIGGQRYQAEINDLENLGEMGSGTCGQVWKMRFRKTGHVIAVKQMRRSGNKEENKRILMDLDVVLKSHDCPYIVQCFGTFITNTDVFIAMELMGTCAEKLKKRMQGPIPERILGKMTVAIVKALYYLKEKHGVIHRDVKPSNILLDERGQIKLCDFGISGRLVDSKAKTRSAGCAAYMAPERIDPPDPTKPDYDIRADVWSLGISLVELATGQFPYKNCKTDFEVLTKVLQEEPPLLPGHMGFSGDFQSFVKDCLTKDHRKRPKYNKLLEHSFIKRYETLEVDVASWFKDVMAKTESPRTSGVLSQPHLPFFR
Method: The stoichiometry and KD value of the DTP3/MKK7 interaction were determined by tryptophan fluorescence quenching analysis, after fitting the fluorescence data with a nonlinear regression algorithm, as described by [Williamson (2013)]. Additional details are provided in Supplemental Experimental Procedures, along with a description of the methods used for CD and MALDI-TOF mass spectrometry analyses and the pull-down of MKK7 from cells with DTP3.
Spectrofluorimetric Analyses
The stoichiometry of the interaction of DTP3 with MKK7 was determined by using tryptophan f luorescence quenching analysis. Spectra were acquired with a Cary Eclipse Spectrof luorimeter analyzer (Varian Inc.), equipped with Peltier thermostating system, and a 1- cm quartz cuvette. The analyses were carried out using 1. 25 μM of GST -hMKK7 or GST dissolved in 10 mM of phosphate buff er, pH 7.5, and increasing concentrations of DTP3 or control SCRB D-peptide dissolved in the same buffer. […] The fluorescence values recorded at 333 nm were extracted, transformed to -ΔFluorescence and, then, plotted against the peptide concentration.
Fluorescence data were f itted using a single- site binding model (equation 1): […]
binding, was a highly appropriate model to account for the measured f lorescence trends, resulting in a R square (R2) of 0.985 and a chi square (X2) of 1.436. […]

[11] = plasma stability; assay type: in vitro ADME, human
Text: as §1, §2, §3, §4, §5, §6

Q: For `CC(=O)N[C@H](Cc1ccc(O)cc1)C(=O)N[C@H](CCCNC(=N)N)C(=O)N[C@H](Cc1ccccc1)C(N)=O` [DTP3, Ac-YRF-NH2], which “microsomal stability (human)” value [1] is on record?
A: Its value is 4.87 ± 1.24 µL/min/mg protein.

Q: And the half-life ([1]; human, microsomes, read-out: microsomal stability (human) t½)?
A: The half-life was 4.75 h.

Q: What about the fraction unbound ([2]; human) of the same molecule?
A: Its fraction unbound is 0.933 ± 0.004.

Q: What about the fraction unbound ([2]; mouse) of the same molecule?
A: The fraction unbound was 0.42 ± 0.01.

Q: What about the IC50 [3] of the same molecule?
A: Its IC50 is 0.0282 ± 0.0001 µM.

Q: What about the IC50 [4] of the same molecule?
A: Its IC50 is > 100 µM.

Q: What about the IC50 [5] of the same molecule?
A: Its IC50 is > 100 µM.

Q: What about the IC50 [6] of the same molecule?
A: Its IC50 is > 10 µM.

Q: What about the IC50 [7] of the same molecule?
A: The IC50 was > 100 µM.

Q: And the IC50 [8]?
A: The IC50 was > 100 µM.

Q: And the IC50 [9]?
A: Its IC50 is > 100 µM.

Q: What about the Kd [10] of the same molecule?
A: The Kd was 0.0648 ± 0.00622 µM.

Q: What about the “plasma stability (human)” value [11] of the same molecule?
A: Its value is > 48 h.
